The values that follow come from ChEMBL document CHEMBL5726364, “Uracil derivatives as AXL and c-MET kinase inhibitors” (2017).

The experiment addresses T1, Tyrosine-protein kinase receptor UFO (Homo sapiens, UniProt P30530).
T1 sequence (P30530 whole entry): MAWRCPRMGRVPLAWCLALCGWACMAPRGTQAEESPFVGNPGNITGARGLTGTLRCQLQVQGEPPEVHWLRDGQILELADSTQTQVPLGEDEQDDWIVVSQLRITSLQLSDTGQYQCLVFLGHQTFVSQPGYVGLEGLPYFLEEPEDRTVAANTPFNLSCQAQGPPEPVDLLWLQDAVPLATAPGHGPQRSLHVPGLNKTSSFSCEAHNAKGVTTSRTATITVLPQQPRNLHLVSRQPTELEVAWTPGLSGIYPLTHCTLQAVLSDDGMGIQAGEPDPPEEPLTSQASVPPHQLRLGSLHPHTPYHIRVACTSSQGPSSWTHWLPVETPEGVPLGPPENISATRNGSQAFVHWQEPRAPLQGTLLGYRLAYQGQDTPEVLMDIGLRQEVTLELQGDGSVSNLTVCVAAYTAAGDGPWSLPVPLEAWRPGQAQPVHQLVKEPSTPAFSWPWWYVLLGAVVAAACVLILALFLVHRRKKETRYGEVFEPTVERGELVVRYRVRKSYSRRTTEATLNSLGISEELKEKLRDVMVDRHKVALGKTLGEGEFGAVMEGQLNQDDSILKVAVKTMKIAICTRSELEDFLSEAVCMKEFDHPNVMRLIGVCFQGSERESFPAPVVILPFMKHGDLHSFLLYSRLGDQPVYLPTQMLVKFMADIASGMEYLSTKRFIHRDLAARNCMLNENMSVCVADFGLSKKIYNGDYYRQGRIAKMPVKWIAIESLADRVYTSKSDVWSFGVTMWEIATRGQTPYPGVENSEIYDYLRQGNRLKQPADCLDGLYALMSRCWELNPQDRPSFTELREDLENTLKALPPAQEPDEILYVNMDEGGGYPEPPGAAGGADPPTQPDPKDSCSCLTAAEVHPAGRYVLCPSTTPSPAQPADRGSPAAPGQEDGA
Kind of experiment: Kinase Assay: The ability of compounds to inhibit the kinase activity of recombinant human baculovirus-expressed AXL was measured by homogeneous TRF (HTRF) using Cisbio's KinEASE assay system in white 384-well Optiplates. Assay buffer contained 1 mM DTT, 2 mM MnCl2, 2% DMSO, 50 nM supplement enzymatic buffer, and 1× enzymatic buffer. A 2× concentration of tyrosine kinase (TK) substrate-biotin/ATP mixture made in assay buffer was added to plates at 10 μL/well using the Multidrop Combi (Thermo Fisher Scientific, Waltham, Mass.). […] Compounds (100 nL), diluted in 100% DMSO on the Biomek FX, (Beckman Coulter, Inc., Brea, Calif.), were transferred to the assay plates using the Biomek FX pintool (2.5% final DMSO in assay). A 2× concentration (final=12 ng/mL) of GST-AXL (diluted in assay buffer) was added to plates at 10 uL/well using the Multidrop Combi. Plates were sealed, briefly shaken and incubated at 25° C. for 30 minutes. […] Plates were sealed, briefly shaken and incubated at 25° C. for 1 hour.
`C=CCn1cc(C(=O)Nc2ccc(Oc3ccnc4cc(OC)c(OC)cc34)c(F)c2)c(=O)n(CC=C)c1=O`: the IC50 is below 10 nM.

As for `CCn1cc(C(=O)Nc2ccc(Oc3ccnc4cc(OC)c(OC)cc34)c(Cl)c2)c(=O)n(-c2ccc(F)cc2)c1=O`, the IC50 is below 10 nM.

As to `CCn1nc(C(=O)Nc2ccc(Oc3ccnc4cc(OC)c(OC)cc34)cn2)c(=O)n(-c2ccc(F)cc2)c1=O`, the half-maximal inhibitory concentration (IC50) was below 10 nM.
